Measurements from PMC9610943, “Truncated Pleurocidin Derivative with High Pepsin Hydrolysis Resistance to Combat Multidrug-Resistant Pathogens” (Pharmaceutics, 2022).
Converted amounts (≈) assume the structure as drawn. Where two headings read alike, the source gives them in different places. Where no end group is shown, it is not given here.

Experiments:
MRSA T144 = assay: microbe, parasite or virus in culture; type: cell-based, Staphylococcus aureus; settings: MRSA T144, micro-broth dilution CLSI 2018, MHB, 37 °C, 16 to 18 h
Description: (§1) S. aureus ATCC 29213, E. coli ATCC 25922, S. enteritidis ATCC 13076 and A. baumannii ATCC 19609 were obtained from the American Type Culture Collection (ATCC). The remaining strains used in the experiment were all preserved strains in our laboratory. All strains were cultured in nutrient broth overnight to the logarithmic phase at 37 °C prior to each experiment.
(§2) The MICs of all drugs were determined by micro-broth dilution method according to CLSI 2018 guidelines. Briefly, a single colony of the bacterial strain was transferred to 1 mL of Mueller Hilton broth (MHB) and overnight at 37 °C and then 10 μL were cultured in a new 1 mL medium for 4 to 6 h, and then the bacterial culture at the logarithmic phase was diluted to 1 × 10^6 CFUs/mL. The assay was performed by adding 100 μL of each peptide solution at various concentrations (0.25 to 128 μg/mL) and 100 μL of diluted bacterial culture to different wells of a 96-well microtiter plate (Corning, NY, USA). After incubation at 37 °C for 16 to 18 h and then read its MIC value. MIC value is defined as the lowest drug concentration without visible bacteria.

MRSA 1530 = assay: microbe, parasite or virus in culture; type: cell-based, Staphylococcus aureus; settings: MRSA 1530, micro-broth dilution CLSI 2018, MHB, 37 °C, 16 to 18 h
Description: as §1, §2

P. aeruginosa PA14 = assay: microbe, parasite or virus in culture; type: cell-based
Description: as §1, §2

[1] = test system: P. aeruginosa (VIM + tmexCD1-torJ1); assay: microbe, parasite or virus in culture; type: cell-based
Description: as §1, §2

S. aureus ATCC 29213 = assay: microbe, parasite or virus in culture; type: cell-based
Description: as §1, §2

[2] = test system: S. aureus 215 (cfr + LZD^R); assay: microbe, parasite or virus in culture; type: cell-based
Description: as §1, §2

E. coli 1F28 (tet(X4)) = assay: microbe, parasite or virus in culture; type: cell-based; settings: E. coli 1F28 (tet(X4)), micro-broth dilution CLSI 2018, MHB, 37 °C, 16 to 18 h
Description: as §1, §2

E. coli G6 (blaNDM-5) = assay: microbe, parasite or virus in culture; type: cell-based; settings: E. coli G6 (blaNDM-5), micro-broth dilution CLSI 2018, MHB, 37 °C, 16 to 18 h
Description: as §1, §2

S. aureus G16 (RIF^R) = assay: microbe, parasite or virus in culture; type: cell-based
Description: as §1, §2

E. coli G92 (mcr-1) = assay: microbe, parasite or virus in culture; type: cell-based; settings: E. coli G92 (mcr-1), micro-broth dilution CLSI 2018, MHB, 37 °C, 16 to 18 h
Description: as §1, §2

E. coli C3 (blaNDM-1) = assay: microbe, parasite or virus in culture; type: cell-based; settings: E. coli C3 (blaNDM-1), micro-broth dilution CLSI 2018, MHB, 37 °C, 16 to 18 h
Description: as §1, §2

[3] = test system: E. coli B2 (blaNDM-5 + mcr-1); assay: microbe, parasite or virus in culture; type: cell-based; settings: E. coli B2 (blaNDM-5 + mcr-1), micro-broth dilution CLSI 2018, MHB, 37 °C, 16 to 18 h
Description: as §1, §2

[4] = test system: E. faecalis A4 (VRE, VanA); assay: microbe, parasite or virus in culture; type: cell-based
Description: as §1, §2

A. baumannii ATCC 19609 = assay: microbe, parasite or virus in culture; type: cell-based; settings: A. baumannii ATCC 19609, micro-broth dilution CLSI 2018, MHB, 37 °C, 16 to 18 h
Description: as §1, §2

[5] = test system: S. enteritidis ATCC 13076; assay: microbe, parasite or virus in culture; type: cell-based
Description: as §1, §2

E. coli ATCC 25922 = assay: microbe, parasite or virus in culture; type: cell-based
Description: as §1, §2

E. coli CP131 (mcr-3) = assay: microbe, parasite or virus in culture; type: cell-based; settings: E. coli CP131 (mcr-3), micro-broth dilution CLSI 2018, MHB, 37 °C, 16 to 18 h
Description: as §1, §2

E. coli B3-1 (tet(X4)) = assay: microbe, parasite or virus in culture; type: cell-based; settings: E. coli B3-1 (tet(X4)), micro-broth dilution CLSI 2018, MHB, 37 °C, 16 to 18 h
Description: as §1, §2

[6] = test system: P. cibarius HNCF44W (blaNDM-1+ tet(X6)); assay: organism not typed; type: cell-based; settings: P. cibarius HNCF44W (blaNDM-1+ tet(X6)), micro-broth dilution CLSI 2018, MHB, 37 °C, 16 to 18 h
Description: as §1, §2

[7] = Staphylococcus aureus, read-out: MIC
[8] = Escherichia coli, read-out: MIC

Compound: CN(C)c1cc(NC(=O)CNC(C)(C)C)c(O)c2c1C[C@H]1C[C@H]3[C@H](N(C)C)C(O)=C(C(N)=O)C(=O)[C@@]3(O)C(O)=C1C2=O [Tig, tigecycline, reference compound]
- MIC (MRSA T144; [7]): 0.25 µg/mL (≈ 0.427 µM)
- MIC (MRSA 1530; [7]): 1 µg/mL (≈ 1.71 µM)
- MIC (P. aeruginosa PA14; Pseudomonas aeruginosa, PA14): < 0.0625 µg/mL
- MIC ([1]; Pseudomonas aeruginosa): < 0.0625 µg/mL
- MIC (S. aureus ATCC 29213; Staphylococcus aureus, ATCC29213): 0.125 µg/mL (≈ 0.213 µM)
- MIC ([2]; Staphylococcus aureus): 0.25 µg/mL (≈ 0.427 µM)
- MIC (E. coli 1F28 (tet(X4)); [8]): 16 µg/mL (≈ 27.3 µM)
- MIC (E. coli G6 (blaNDM-5); [8]): 2 µg/mL (≈ 3.41 µM)
- MIC (S. aureus G16 (RIF^R); Staphylococcus aureus): < 0.0625 µg/mL
- MIC (E. coli G92 (mcr-1); [8]): 4 µg/mL (≈ 6.83 µM)
- MIC (E. coli C3 (blaNDM-1); [8]): 2 µg/mL (≈ 3.41 µM)
- MIC [3, 8]: 2 µg/mL
- MIC ([4]; Enterococcus faecalis, VRE): < 0.0625 µg/mL
- MIC (A. baumannii ATCC 19609; Acinetobacter baumannii, ATCC19609, read-out: MIC): 0.25 µg/mL (≈ 0.427 µM)
- MIC ([5]; Salmonella enterica): 0.125 µg/mL (≈ 0.213 µM)
- MIC (E. coli ATCC 25922; Escherichia coli, ATCC25922): 0.125 µg/mL (≈ 0.213 µM)
- MIC (E. coli CP131 (mcr-3); [8]): 2 µg/mL (≈ 3.41 µM)
- MIC (E. coli B3-1 (tet(X4)); [8]): 32 µg/mL (≈ 54.6 µM)
- MIC ([6]; read-out: MIC): 64 µg/mL (≈ 109 µM)

Compound: GWGSFFKKAAHVGK [GK-1]
- MIC (MRSA T144): >128 µg/mL
- MIC (MRSA 1530): >128 µg/mL
- MIC (P. aeruginosa PA14; P. aeruginosa PA14, micro-broth dilution CLSI 2018, MHB, 37 °C, 16 to 18 h): >128 µg/mL
- MIC ([1]; P. aeruginosa (VIM + tmexCD1-torJ1), micro-broth dilution CLSI 2018, MHB, 37 °C, 16 to 18 h): >128 µg/mL
- MIC (S. aureus ATCC 29213; S. aureus ATCC 29213, micro-broth dilution CLSI 2018, MHB, 37 °C, 16 to 18 h): >128 µg/mL
- MIC ([2]; S. aureus 215 (cfr + LZD^R), micro-broth dilution CLSI 2018, MHB, 37 °C, 16 to 18 h): >128 µg/mL
- MIC (E. coli 1F28 (tet(X4))): >128 µg/mL
- MIC (E. coli G6 (blaNDM-5)): >128 µg/mL
- MIC (S. aureus G16 (RIF^R); S. aureus G16 (RIF^R), micro-broth dilution CLSI 2018, MHB, 37 °C, 16 to 18 h): >128 µg/mL
- MIC (E. coli G92 (mcr-1)): >128 µg/mL
- MIC (E. coli C3 (blaNDM-1)): >128 µg/mL
- MIC [3]: >128 µg/mL
- MIC ([4]; E. faecalis A4 (VRE, VanA), micro-broth dilution CLSI 2018, MHB, 37 °C, 16 to 18 h): >128 µg/mL
- MIC (A. baumannii ATCC 19609): >128 µg/mL
- MIC ([5]; S. enteritidis ATCC 13076, micro-broth dilution CLSI 2018, MHB, 37 °C, 16 to 18 h): >128 µg/mL
- MIC (E. coli ATCC 25922; E. coli ATCC 25922, micro-broth dilution CLSI 2018, MHB, 37 °C, 16 to 18 h): >128 µg/mL
- MIC (E. coli CP131 (mcr-3)): >128 µg/mL
- MIC (E. coli B3-1 (tet(X4))): >128 µg/mL
- MIC [6]: >128 µg/mL
